The source of these data is US20240325548A1, “DYNAMIC BIOACTIVE SCAFFOLDS AND THERAPEUTIC USES THEREOF AFTER CNS INJURY” (Northwestern University, priority 2021, published 2024).

The target of one data set is T1, β1-INTEGRIN (ITGB1) (Homo sapiens, UniProt P05556).
T1 construct: endogenous in cells; host or cells: hNPCs differentiated from human embryonic stem cells HUES 64
In words: ITGB1 activation and intracellular signaling in hNPCs treated with IKVAV PAs (confocal microscopy, WB). The settings on record: for active ITGB1 and downstream effectors ILK and p-FAK: relative to other IKVAV PAs, IKVAV peptide, laminin or ornithine; for activation of ITGB1 and downstream pathway (ILK, p-FAK/FAK) with Ca2+ added: PA mixed with 5 mM CaCl2. It is filed as cell-based. The source says: Neural progenitor cells (NPCs) were differentiated from human embryonic stem cells HUES 64 (Harvard University) (see FIG. 2C). In short, 70% confluent stem cell cultures grown in Matrigel (Thermo Fisher) coated plates with mTESR medium (STEMCELL Technologies), were switched to N2B27 medium (50% DMEM: F12, 50% Neurobasal, supplemented with NEAA, Glutamax, N2 and B27; Gibco) containing dual SMAD inhibitors (SB431542, DNSK International and LDN-193189, Tocris) for 12 days to induce the generation of neural progenitors. Neuralization was enhanced by supplementing medium with laminin from day 5 to 12. Next, neural rosettes were dissociated with neural rosette selection reagent (STEMCELL Technologies) to obtain NPCs, which are expanded in N2B27 (Gibco) medium supplemented with bFGF (Millipore). For experimentation in the different PA platforms, NPCs were dissociated with Accutase (Innovative Cell technology), and cultured in the distinct platforms with DMEM: F12+N2+B27 medium with hyclone penicillin-streptomycin (GE Healthcare) and ascorbic acid (0.2 μg/mL; Sigma-Aldrich).
For IKVAV PA treatments, hNPCs were cultured on ornithine coatings (German Glass, Chemglass Life Science) in 6 well and 24 well plates at a density of 500,000 cells/well and 80,000 cells/well respectively. hNPCs were treated with […] of IKVAV PAs ([PA]=6 mM, [KCl]=3 mM, [NaCl]=150 mM) or recombinant laminin protein (10 mg/mL) in solution. IKVAV PA2 and IKVAV PA5 were also mixed with 5 mM CaCl2) at a ratio PA:CaCl2) 6:1 to treat hNPCs. For 2D experiments, hNPCs were cultured on the different IKVAV PAs or laminin coatings in 6 well and 24 well plates at densities mentioned above. For co-assembled experiments, hNPCs were cultured on the different co-assembled PA coatings in 6 well and 24 well plates at a density of 400,000 cells/well and 50,000 cells/well respectively.
hNPCs were fed 4 times a week with DMEM: F12+N2^+B27 medium with hyclone penicillin-streptomycin and ascorbic acid. After 24 h, 72 h 1- or 2-weeks in vitro, cell lysates were harvested or fixed for WB or ICC, respectively. Three replicates per condition and at least three independent experiments were carried out for all conditions investigated.
For immunofluorescence, fixed primary cultures or free-floating tissue sections (40 m Thick) were incubated in blocking buffer containing 0.02% Triton-X (Sigma-Aldrich), 1% NHS (Gibco) and PBS 1× (Gibco). Samples were incubated with primary antibodies over night at 4° C. Alexa-488, Alexa-555 and/or Alexa-647 (1:500, Thermofisher) were used as secondary antibodies. DAPI (1:500, Thermofisher) was used to stain nuclei. Finally, the samples were mounted on coverslips with Immu-Mount (Fisher Scientific) solution for imaging.
RIPA buffer (Thermofisher) with a cocktail of Halt Protease and Phosphatase Inhibitors (Thermofisher) was used to extract protein from in vitro and in vivo samples. For in vivo studies, spinal cord tissue was then sonicated using a horn sonicator (Branson) to break up the tissue. A Pierce™ BCA Protein Assay Kit (Thermofisher) was used to determine protein content for all samples used. Protein extracts obtained from cell cultures or tissue were separated using an SDS-polyacrylamide gel and electro-transferred to a nitrocellulose membrane (Bio-Rad). Membranes were blocked for 30 minutes to 1 hour using a 5% milk solution (Bio-Rad) and incubated over night with primary antibodies. Corresponding secondary HRP-conjugated antibodies (1:1000, ThermoFisher) were used for 1 h at room temperature. Radiance Bioluminescent ECL substrate (Azure Biosystems) was used to detect protein signal. The membranes were imaged using the Azure Biosystems imager and densitometry analysis were performed using ImageJ software.

Data set [1] can be described thus: Diffusion ordered spectroscopy (DOSY), pulse-field gradient NMR. Format: physicochemical. The method, then: The diffusion coefficients were measured by pulse-field gradient NMR using the longitudinal eddy-current delay with bipolar pulse pairs pulse sequence with a maximum gradient strength of 53.5 G/cm and 16 values for the gradient strength. The peak intensity I was measured and fit to the Stejskal-Tanner equation: […]
where I0 is the intensity in the absence of the gradient pulse, D is the diffusion coefficient, γ is the proton gyromagnetic ratio, g is the gradient strength, δ is the length of the pulse field gradient pulse (2 ms) and Δ is the diffusion delay (0.1 s).
The […] was calculated from the Stokes-Einstein equation as: […]
where kB is the Boltzmann constant, T is the temperature, and f is the viscosity.
PA materials were mixed (90 mol % of IKVAV PA2+10 mol % FGF2 PAs) and sonicated as described above and then lyophilized. Samples were then dissolved in D2O water and solubilized in 1 equiv. NaOD at a concentration of 6 mM in standard 5 mm NMR tube with 0.25 mM sodium trimethylsilylpropanesulfonate (DSS) as a chemical shift reference and an intensity standard. […] Diffusion coefficients were measured using pulse-field gradient NMR using the stimulated echo pules sequence with a 2 ms gradient pulse and a 100 ms diffusion delay time using a maximum gradient strength of 53 G/cm.

The nature of data set [2]: Small- and wide-angle X-ray scattering (SAXS/WAXS) of PA nanofibers. Format: physicochemical. To be noted: PA nanofibers in solution. On the procedure:
Small-angle X-ray scattering (SAXS), medium-angle X-ray scattering (MAXS), a wide-angle X-ray scattering (WAXS) experiments were performed at beamline 5-ID-D of the DuPont-Northwestern-Dow Collaborative Access Team (DND-CAT) Synchrotron Research Center at the Advanced Photon Source, Argonne National Laboratory. 100-150 μL of sample solution ([PA]=1-3 w/v % (˜6-10 mM) in aqueous NaCl and KCl ([NaCl]=150 mM and [KCl]=3 mM)) was introduced into capillary flow-cell with a fixed diameter and irradiated with X-ray for an exposure time of 0.5, 2, 3, or 10 s. Samples were oscillated at a rate of […] in the capillary with a syringe pump during sample measurement to prevent damage due to beam overexposure. Data was collected with an X-ray energy at 17 keV ([…]) with a triple-area detector system. The scattering intensity was recorded in the interval 0.002390<q<4.4578 Å^−1. The wave vector q is defined as =(4π/λ) sin(θ/2), where θ is the scattering angle. The acquired 2D scattering data were then reduced to 1D intensity vs. wavevector plots via azimuthal integration around the beam center in GSAS-II software. Background scattering patterns were obtained from samples containing 150 mM NaCl and 3 mM KCl. This background data was then subtracted from experimental data. All data was analyzed using the Irena software package running on IgorPro software.

T1 sequence (P05556 21-798): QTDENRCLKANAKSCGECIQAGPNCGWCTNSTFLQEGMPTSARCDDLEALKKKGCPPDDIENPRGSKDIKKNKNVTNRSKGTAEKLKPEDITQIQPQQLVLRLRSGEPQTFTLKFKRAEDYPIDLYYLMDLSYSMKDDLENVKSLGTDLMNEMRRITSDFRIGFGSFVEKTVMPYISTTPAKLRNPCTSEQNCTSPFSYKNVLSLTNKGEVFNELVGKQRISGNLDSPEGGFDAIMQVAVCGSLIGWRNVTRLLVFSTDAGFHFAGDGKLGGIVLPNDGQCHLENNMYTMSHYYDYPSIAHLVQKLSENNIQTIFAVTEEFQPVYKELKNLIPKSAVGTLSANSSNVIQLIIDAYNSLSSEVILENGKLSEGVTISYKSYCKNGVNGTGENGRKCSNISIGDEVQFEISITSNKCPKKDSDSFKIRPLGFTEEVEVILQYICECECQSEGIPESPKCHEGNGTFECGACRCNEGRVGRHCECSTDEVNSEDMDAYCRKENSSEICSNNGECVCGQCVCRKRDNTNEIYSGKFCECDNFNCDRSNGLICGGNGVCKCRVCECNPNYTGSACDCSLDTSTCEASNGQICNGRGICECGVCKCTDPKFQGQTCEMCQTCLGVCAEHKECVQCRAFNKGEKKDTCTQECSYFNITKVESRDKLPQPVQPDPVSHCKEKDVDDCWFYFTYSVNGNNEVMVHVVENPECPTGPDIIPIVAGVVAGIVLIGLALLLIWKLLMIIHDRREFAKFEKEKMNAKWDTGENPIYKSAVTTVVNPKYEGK

On to C16-VAG2E4GIKVAV [IKVAV PA4], for which, on β1-INTEGRIN (ITGB1), the “in vitro bioactivity (summary)” value was “low level of in vitro bioactivity”; the “active ITGB1 and downstream effectors ILK and p-FAK” value is “intermediate level of activation”.
Take C16-V2A2E4GIKVAV [IKVAV PA1]: the “in vitro bioactivity (summary)” value on β1-INTEGRIN (ITGB1) is given as “low level of in vitro bioactivity”.
Consider C16-A2G2E4GIKVAV [IKVAV PA2], for which the Rh in data set [1] (calculated from Stokes-Einstein equation) is 1.4 nm. Besides, in data set [1] (diffusion coefficient, DOSY), the D is given as 1.6 ± 0.01 × 10^−10 m^2/s. Besides, the “SAXS slope in the Guinier region” value in data set [2] was −1.2. At β1-INTEGRIN (ITGB1), the “activation of ITGB1 and downstream pathway (ILK, p-FAK/FAK) with Ca2+ added” value is listed as “decreased”; the “active ITGB1 and downstream effectors ILK and p-FAK” value is given as “substantially higher”.
Regarding C16-G4E4GIKVAV [IKVAV PA5], the “SAXS slope in the Guinier region” value in data set [2] is reported as −0.2. Besides, on β1-INTEGRIN (ITGB1), the “activation of ITGB1 and downstream pathway (ILK, p-FAK/FAK) with Ca2+ added” value is listed as “decreased”; the “active ITGB1 and downstream effectors ILK and p-FAK” value is reported as “substantially higher”.
